From ChEMBL document CHEMBL1133950, “Synthesis and biological evaluation of clitocine analogues as adenosine kinase inhibitors” (Bioorg Med Chem Lett, 2001)

Target: Adenosine kinase (Rattus norvegicus, UniProt Q64640)
Assay: In vitro inhibition of Adenosine kinase of rat brain cytosol.

Adenosine kinase, sequence (Q64640 whole entry): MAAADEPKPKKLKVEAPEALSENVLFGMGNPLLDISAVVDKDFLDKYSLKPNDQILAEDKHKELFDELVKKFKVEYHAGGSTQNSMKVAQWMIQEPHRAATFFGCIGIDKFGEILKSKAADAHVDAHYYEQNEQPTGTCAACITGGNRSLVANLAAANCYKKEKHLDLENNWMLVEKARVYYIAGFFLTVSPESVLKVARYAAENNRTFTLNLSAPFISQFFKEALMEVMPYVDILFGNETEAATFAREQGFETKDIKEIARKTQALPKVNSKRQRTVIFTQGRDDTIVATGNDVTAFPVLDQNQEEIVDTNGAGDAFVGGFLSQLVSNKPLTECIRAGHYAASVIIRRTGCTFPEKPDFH

Compound | IC50
COC(=O)c1c(N)ncnc1N[C@@H]1O[C@H](CO)[C@@H](O)[C@H]1O | 10 µM
COC(=O)c1c(N)ncnc1N[C@@H]1O[C@H](C)[C@@H](O)[C@H]1O | 6.1 µM
O=[N+]([O-])c1c(Nc2ccccc2)ncnc1N[C@@H]1O[C@H](CO)[C@@H](O)[C@H]1O | > 10 µM
Nc1ncnc(N[C@@H]2O[C@H](CBr)[C@@H](O)[C@H]2O)c1[N+](=O)[O-] | > 10 µM
Nc1ncnc(N[C@@H]2O[C@H](CO)[C@@H](O)[C@H]2O)c1C1=NCCO1 | 4 µM
NC[C@H]1O[C@@H](Nc2ncnc(N)c2[N+](=O)[O-])[C@H](O)[C@@H]1O | 0.035 µM
COC(=O)c1c(Cl)ncnc1N[C@@H]1O[C@H](CO)[C@@H](O)[C@H]1O | > 10 µM
Nc1ncnc(N[C@@H]2O[C@H](CO)[C@@H](O)[C@H]2O)c1S(=O)(=O)c1ccccc1 | > 10 µM
COC(=O)c1cncnc1N[C@@H]1O[C@H](CO)[C@@H](O)[C@H]1O | 0.6 µM

Continued, values first:

IC50 | Compound
4 µM | C[C@H]1O[C@@H](Nc2ncnc(N)c2[N+](=O)[O-])[C@H](O)[C@@H]1O
0.004 µM | COC(=O)c1cncnc1N[C@@H]1O[C@H](CN)[C@@H](O)[C@H]1O
> 10 µM | Nc1ncnc(N[C@@H]2O[C@H](CO)[C@@H](O)[C@H]2O)c1[S+]([O-])c1ccccc1 (some centres undefined)
0.002 µM | COC(=O)c1c(N)ncnc1N[C@@H]1O[C@H](CN)[C@@H](O)[C@H]1O
> 10 µM | Nc1ncnc(N[C@@H]2O[C@H](CO)[C@@H](O)[C@H]2O)c1C(=O)NCCO
